Laboratory results from patent US9290463B2, “Radiolabeled compounds and uses thereof” (THE TRUSTEES OF COLUMBIA UNIVERSITY IN THE CITY OF NEW YORK, priority 2010, dated 2016).

How the values were obtained:
human 5-HT1A receptor = human 5-HT1A receptor (Homo sapiens (Human), UniProt P08908); experiment: Inhibition of [3H]-8-OH-DPAT binding in membranes from CHO-h5-HT1A cells; conditions: 5 nM [3H]-8-OH-DPAT, read-out: Binding affinity value (Ki)
Protocol: In Vitro Agonist Binding Assay.
Preparation of Membrane Fractions from CHO-h5-HT1A Cells. Membranes from CHO cells stably expressing the human 5-HT1A receptor at a density of 8 pmol/mg membrane protein with 5-HT2c receptor background were prepared. Cells were grown in DMEM/F-12 medium supplemented with 5% fatal bovine serum, 50 ig/mL geneticin, and 50 ig/mL hygromycin B in a humidified atmosphere of 5% CO2 until they reached confluence. Cells were harvested by centrifugation (800 g for 5 min) and homogenized using a polytron homogenizer (Polytron, CH-6010 Kreiens-Lu, Brinkman Instrument, Westbury, N.Y.) in buffer containing 20 mM HEPES, pH7.4, 3 mM MgCl2, and a cocktail of protease inhibitors (Sigma-Aldrich, St. Louis, Mo.) at 1:2000 dilution. The homogenate was centrifuged (Beckman Optima LE80K Ultracentrifuge) at 100 000 g for 15 min at 4° C. The pellet was suspended in the same buffer and recentrifuged. The final pellet was suspended in assay buffer containing 20 mM HEPES, pH 7.4, 3 mM MgCl2, 100 mM NaCl, and a mixture of protease inhibitors and stored at −70° C. Protein concentration was determined by detergent compatible colorimetric assay using DC Protein Assay Reagents as recommended by the manufacturer (Bio-Rad, Hercules, Calif.).
Inhibition of [^3H]-8-OH-DPAT Binding by A-D or 5-HT in Membranes. For inhibition experiments, the incubation medium consisted of 20 mM HEPES, pH 7.4, 4 mM CaCl2, 5 nM [^3H]-8-OH-DPAT, and 30 μg of membrane protein in the presence of different concentrations of […] or 5-HT. The assay mixture was incubated for 10 min at 30° C. The reaction was terminated by rapid filtration through Whatman GF/B filters followed by three washes with ice cold 20 mM HEPES buffer, pH 7.4, using a cell harvester (Brandel, M-24R Gaitherburg, Md.). Bound radioactivity was determined by liquid scintillation spectrometry (Beckman).

5-HT1A = 5-HT1A (Rattus norvegicus (Rat), UniProt P19327); experiment: Ex vivo saturation binding of Compound E in rat brain regions; conditions: hippocampus and frontal cortex, rats 90 min after i.v. injection, one binding-site model
Chain of 5-HT1A (P19327 whole entry): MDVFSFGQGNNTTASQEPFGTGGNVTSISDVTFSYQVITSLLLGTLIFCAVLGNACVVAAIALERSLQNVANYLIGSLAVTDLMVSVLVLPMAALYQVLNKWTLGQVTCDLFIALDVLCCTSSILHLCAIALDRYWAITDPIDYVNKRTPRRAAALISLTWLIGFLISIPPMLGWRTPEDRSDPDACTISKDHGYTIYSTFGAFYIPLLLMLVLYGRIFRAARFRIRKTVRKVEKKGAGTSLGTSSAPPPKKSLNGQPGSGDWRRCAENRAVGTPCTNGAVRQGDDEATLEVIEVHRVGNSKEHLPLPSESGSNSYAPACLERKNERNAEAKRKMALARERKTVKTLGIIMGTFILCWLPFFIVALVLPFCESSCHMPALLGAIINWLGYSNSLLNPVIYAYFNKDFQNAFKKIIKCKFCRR
Protocol: Ex vivo studies of compound E: Awake rats were injected in the tail vein with Compound E shown below:
Total mass injected was between 0.02 nmol/kg and 500 nmol/kg. All rats were decapitated after 90 minutes, based on time activity experiments with Compound E. The brains were extracted and brain regions were dissected, and then dissolved in Solvable (Packard). Blood was collected, and the plasma was separated. Radioactivity concentrations were determined by scintillation counting.
It was possible to saturate the 5-HT1A binding of Compound E in the frontal cortex and hippocampus. Data were best fitted with a one binding-site model. […] The cerebellum and plasma were unsaturable and no binding model could be fitted to the data.

5-HT1AR = 5-HT1AR (Rattus norvegicus (Rat), UniProt P19327); experiment: Endogenous changes of 5-HT measured with Compound E uptake and binding in pretreated rats; type: in vivo; conditions: for SBR (specific binding ratio) of Compound E, change versus saline / SUV of Compound E, change versus saline: hippocampus, 90 min after Compound E i.v., pretreated rats
Chain of 5-HT1AR (P19327 whole entry): as above
Protocol: Endogenous changes of 5-HT measurement with Compound E: Rats were pretreated according to the group below, injected with 0.1 MBq (0.18±0.02 nmol/kg, i.v.) of Compound E, then killed by decapitation after 90 minutes. Blood was collected from the trunk, the brain was extracted and the striatum, hippocampus, frontal cortex and cerebellum were dissected. Brain regions were dissolved, plasma was separated from the blood and radioactivity concentrations were determined.
The uptake and binding of Compound E after injection differed by treatment condition. […] Changes in the specific binding ratio (SBR=(activity in ROI−activity in Cerebellum)/activity in Cerebellum) were significant in Fenfluramine 1 and 2.

Chain of human 5-HT1A receptor (P08908 whole entry): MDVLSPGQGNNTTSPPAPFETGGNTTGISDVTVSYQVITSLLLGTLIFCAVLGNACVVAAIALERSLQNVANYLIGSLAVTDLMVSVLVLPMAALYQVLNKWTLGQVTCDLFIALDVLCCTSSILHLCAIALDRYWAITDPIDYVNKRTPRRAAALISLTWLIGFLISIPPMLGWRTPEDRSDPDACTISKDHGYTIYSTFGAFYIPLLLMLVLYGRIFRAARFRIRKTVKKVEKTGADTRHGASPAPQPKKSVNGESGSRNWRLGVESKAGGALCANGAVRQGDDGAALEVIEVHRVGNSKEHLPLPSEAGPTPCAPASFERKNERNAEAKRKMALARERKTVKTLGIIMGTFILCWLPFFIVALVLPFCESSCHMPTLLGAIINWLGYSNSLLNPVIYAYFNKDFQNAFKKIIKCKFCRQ

Row | Compound | Ki (human 5-HT1A receptor) [nM] | SBR (specific binding ratio) of Compound E, change versus saline (5-HT1AR) | SUV of Compound E, change versus saline (5-HT1AR) | Change in uptake of Compound E by treatment condition (5-HT1AR; in words) | further results
1 | Cn1c(=O)cnn(CCCCN2CCN(c3cccc(I)n3)CC2)c1=O | 5.5 | – | – | – | –
2 | Cn1c(=O)cnn(CCCCN2CCN(c3ccccc3Br)CC2)c1=O | 6 | – | – | – | –
3 | Cn1c(=O)cnn(CCCCN2CCN(c3cccc(Br)n3)CC2)c1=O | 4 | – | – | – | –
4 | [3H]COc1ccccc1N1CCN(CCCCn2ncc(=O)n(C)c2=O)CC1 [Compound E] | – | – | – | – | Kd (5-HT1A): 17 to 18 nM
5 | [3H]COc1ccccc1N1CCN(CCCCn2ncc(=O)n(C)c2=O)CC1 [drawing 34] | 0.15 | – | – | – | –
6 | CN(C)CCCC1(c2ccc(F)cc2)OCc2cc(C#N)ccc21 (centres unmarked) [Citalopram] | – | −12.2% | +4.8% | – | –
7 | Isoflurane [Isoflurane, 1-3% (Inhaled) + Saline] | – | −4.6% | +52.1% | Significant changes in uptake | –
8 | NC(Cc1ccc(Cl)cc1)C(=O)O (centres unmarked) [Single Housed + pCPA, pCPA] | – | −15.1% | −14.1% | Significant changes in uptake | –
9 | CCNC(C)Cc1cccc(C(F)(F)F)c1 (centres unmarked) [Fenfluramine] | – | +32.8% | −0.1% | Significant changes in uptake | Change in specific binding ratio of Compound E by treatment condition (5-HT1AR; in words): significant
